Source: patent US20240335364A1, “COMPOSITIONS OF DICAFFEOYLQUINIC ACIDS WITH TOCOPHEROL” (SYMRISE AG, priority 2021, published 2024)

Key:
[1] = test system: DEFB1; assay: Modulation of DEFB1 gene expression of keratinocytes (real-time qPCR, RQ); type: cell-based, human; set-up: key: RQ = expression relative to DMSO vehicle control (qPCR); settings: nHEK, 24 h
Procedure: (§1) Neonatal human epidermal keratinocytes (nHEK) were cultivated in an EpiLife® medium (Gibco) including an HKGS kit (Gibco) with 5% CO2 at 37° C. in accordance with the supplier's instructions. The cells were treated for 24 hours, with 0.0005% of the different dicaffeoylquinic acids from above dissolved in DMSO and DMSO alone as the vehicle control. Genomic target expression levels in treated cells were measured using a quantitative Real-Time PCR comparison to vehicle control treatment.
(§2) RNA was isolated using Qiagen's RNeasy® Mini Kit. The total RNA concentrations were measured using Eppendorf's μCuvetteG 1.0 and BioPhotometer, by measuring the absorption at 260 nm. Purity control values such as E260/280 and E260/230 were calculated simultaneously. Reverse transcription was performed using the high-capacity RNA-to-cDNA kit of Applied Biosystems, in accordance with the supplier's instructions. Samples were treated in Biometra's PCR Thermocycler. For fast real-time qPCR, the cDNA was diluted with RNase-free water, and the TaqMan™ Fast Universal PCR Master Mix of Applied Biosystems was used. Quantitative real time PCR was performed using the StepOnePlus fast real-time PCR instrument by Applied Biosystems. Analysis was conducted using the StepOne software and […] (normalised to endogenous control […] expression). For upregulations, RQ values ≥2.5 are considered to be relevant.
(§3) Neonatal human epidermal keratinocytes (nHEK) were cultivated as described in Example 1 and treated for 24 hours with 0.0007% of the different monocaffeoylquinic acids. Afterwards fast real-time qPCR was performed as described in above using a customised gene array.
(§4) Neonatal human epidermal keratinocytes (nHEK) were cultivated as described in Example 1 and treated for 24 hours with 4,5-dicaffeoylquinic acid (CAS number 14534-61-3, Phytolab GmbH & Co. KG) and (±)-α-tocopherol (CAS number 10191-41-0, synonym: Synonym: DL-α-Tocopherol, Vitamin E, Sigma-Aldrich, synthetic) alone and in combination. Afterwards fast real-time qPCR was performed as described in above using a customised gene array.
(§5) [formula] • With • A=RQ value by 4,5-dicaffeoylquinic acid at concentration x • B=RQ value by tocopherol at concentration y • C=RQ value by the combination of 4,5-dicaffeoylquinic acid at concentration x/2 and tocopherol at concentration y/2 • D=Factor for 4,5-dicaffeoylquinic acid=>0.5 (due to half concentration tested in the combination) • E=Factor for tocopherol=>0.5 (due to half concentration tested in the combination) • A SI=1 is obtained for additive activity of the two combined components, whereas a SI <1 proves antagonistic activity (observed efficacy is lower than additive) and SI >1 proves synergistic activity (observed efficacy is higher than additive).
(§6) Neonatal human epidermal keratinocytes (nHEK) were cultivated as described above and treated for 24 hours with yarrow extract of example 3 (Achillea millefolium, freeze-dried fresh press juice of flowering aerials, cultivated in Germany) and (±)-α-tocopherol (CAS number 10191-41-0, synonym: Synonym: DL-α-Tocopherol, Vitamin E, Sigma-Aldrich, synthetic) alone and in two combinations. Afterwards fast real-time qPCR was performed as described in above using a customised gene array.
as §6, with “(+)-α-tocopherol” for “(±)-α-tocopherol”, “59-02-9,” for “10191-41-0,”, “D-α-tocopherol,” for “DL-α-Tocopherol,”, “Sigma-Aldrich)” for “Sigma-Aldrich, synthetic)”, “combination.” for “two combinations.”

[2] = test system: DSC1; assay: Modulation of DSC1 gene expression of keratinocytes (real-time qPCR, RQ); type: cell-based, human; set-up: key: RQ: expression relative to DMSO vehicle control; settings: nHEK, 24 h
Procedure: as §1, §2, §3
(§7) Neonatal human epidermal keratinocytes (nHEK) were cultivated as described in Example 1 and treated for 24 hours with 0.005% of the extract samples. Afterwards fast real-time qPCR was performed as described in above using a customized gene array.
as §4, §5
(§8) Neonatal human epidermal keratinocytes (nHEK) were cultivated as described in Example 1 and treated for 24 hours with 3,4-dicaffeoylquinic acid (CAS number 57378-72-0, Phytolab GmbH & Co. KG) and (+)-α-tocopherol (CAS number 59-02-9, synonym: Synonym: D-α-tocopherol, Vitamin E, Sigma-Aldrich) alone and in combination. Afterwards fast real-time qPCR was performed as described in above using a customised gene array. For upregulations, RQ values ≥2.5 are considered to be relevant.
as §6, with “array. […]” for “array.”

[3] = test system: OCLN; assay: Modulation of OCLN gene expression of keratinocytes (real-time qPCR, RQ); type: cell-based, human; set-up: key: RQ: expression relative to DMSO vehicle control (qPCR); settings: nHEK, 24 h
Procedure: as §1, §2, §3, §7, §4, §5, §6

[4] = test system: CRYAB; assay: Modulation of CRYAB gene expression of keratinocytes (real-time qPCR, RQ); type: cell-based, human; set-up: key: relative quantity (RQ) vs DMSO vehicle-treated control; settings: nHEK, 24 h
Procedure: as §1, §2, §3, §7, §4, §5
(§9) Neonatal human epidermal keratinocytes (nHEK) were cultivated as described above and treated for 24 hours with 3,5-dicaffeoylquinic acid (CAS number 2450-53-5, Phytolab GmbH & Co. KG) and D-α-tocopherol (CAS number 59-02-9, synonym: (+)-α-tocopherol, Vitamin E, trade name: Copherol® F 1300 C, BTC Europe GmbH) alone and in combination. Afterwards fast real-time qPCR was performed as described in above using a customised gene array.
as §6, with “array. […]” for “array.”

[5] = test system: HSPB2; assay: Modulation of HSPB2 gene expression of keratinocytes (real-time qPCR, RQ); type: cell-based, human; set-up: key: relative quantity vs DMSO vehicle control (qPCR); settings: nHEK, 24 h
Procedure: as §1, §2, §3, §4, §5, §6

[6] = test system: HSPB8; assay: Modulation of HSPB8 gene expression of keratinocytes (real-time qPCR, RQ); type: cell-based, human; set-up: key: RQ: expression relative to DMSO vehicle control (qPCR); settings: nHEK, 24 h
Procedure: as §1, §2, §3, §7, §4, §5, §6

[7] = test system: DSG1; assay: Modulation of DSG1 gene expression of keratinocytes (real-time qPCR, RQ); type: cell-based, human; set-up: key: relative quantity vs DMSO vehicle control (qPCR); settings: nHEK, 24 h
Procedure: as §1, §2, §3, §7, §4, §5, §8
as §9, with “array. […]” for “array.”

[8] = test system: CLDN1; assay: Modulation of CLDN1 gene expression of keratinocytes (real-time qPCR, RQ); type: cell-based, human; settings: nHEK, 24 h
Procedure: as §1, §2, §3, §7, §4, §5, §8, §6

[9] = test system: Neonatal human epidermal keratinocytes (nHEK); assay: Modulation of gene expression of keratinocytes, whole gene array (statements in words); type: cell-based; settings: 24 h
Procedure: as §1, §2, §3, §7

[10] = 0.003% tocopherol alone, Example 8
[11] = 0.005% tocopherol alone, Example 7, Table 9
[12] = 0.005% tocopherol alone, Example 7, Table 10

## O=C(/C=C/c1ccc(O)c(O)c1)O[C@H]1[C@H](O)C[C@](O)(C(=O)O)C[C@H]1OC(=O)/C=C/c1ccc(O)c(O)c1 [4,5-Dicaffeoylquinic acid, 4,5-dicaffeoylquinic acid]
[1]; 0.0005%, Example 1
  RQ value DEFB1: 3.2
[1]; 0.0007% alone, Example 4
  RQ value DEFB1: 4.3
[2]; 0.0005%, Example 1
  RQ value DSC1: 18.1
[2]; 0.0007% alone, Example 4
  RQ value DSC1: 25.0
[3]; 0.0005%, Example 1
  RQ value OCLN: 2.4
[3]; 0.0007% alone, Example 4
  RQ value OCLN: 3.4
[4]; 0.0005%, Example 1
  RQ value CRYAB: 13.8
[4]; 0.0007% alone, Example 4
  RQ value CRYAB: 21.1
[5]; 0.0005%, Example 1
  RQ value HSPB2: 4.3
[5]; 0.0007% alone, Example 4
  RQ value HSPB2: 5.7
[6]; 0.0005%, Example 1
  RQ value HSPB8: 4.2
[6]; 0.0007% alone, Example 4
  RQ value HSPB8: 6.2
[7]; 0.0005%, Example 1
  RQ value DSG1: 10.6
[7]; 0.0007% alone, Example 4
  RQ value DSG1: 11.1
[8]; 0.0005%, Example 1
  RQ value CLDN1: 3.5
[8]; 0.0007% alone, Example 4
  RQ value CLDN1: 2.4

## O=C(/C=C/c1ccc(O)c(O)c1)O[C@H]1[C@H](O)C[C@](O)(C(=O)O)C[C@H]1O [4-caffeoyl-quinic acid, 4-caffeoylquinic acid]
[1]; 0.0007%, Example 2
  RQ value DEFB1: 1.9
[2]; 0.0007%, Example 2
  RQ value DSC1: 2.2
[3]; 0.0007%, Example 2
  RQ value OCLN: 1.0
[4]; 0.0007%, Example 2
  RQ value CRYAB: 1.9
[5]; 0.0007%, Example 2
  RQ value HSPB2: 2.2
[6]; 0.0007%, Example 2
  RQ value HSPB8: 1.0
[7]; 0.0007%, Example 2
  RQ value DSG1: 1.9
[8]; 0.0007%, Example 2
  RQ value CLDN1: 0.8

## O=C(/C=C/c1ccc(O)c(O)c1)O[C@@H]1C[C@@](O)(C(=O)O)C[C@@H](O)[C@@H]1O [5-caffeoyl-quinic acid, 5-caffeoylquinic acid]
[1]; 0.0007%, Example 2
  RQ value DEFB1: 0.7
[2]; 0.0007%, Example 2
  RQ value DSC1: 0.7
[3]; 0.0007%, Example 2
  RQ value OCLN: 0.8
[4]; 0.0007%, Example 2
  RQ value CRYAB: 0.7
[5]; 0.0007%, Example 2
  RQ value HSPB2: 1.0
[6]; 0.0007%, Example 2
  RQ value HSPB8: 0.6
[7]; 0.0007%, Example 2
  RQ value DSG1: 0.5
[8]; 0.0007%, Example 2
  RQ value CLDN1: 0.8

## Cc1c(C)c2c(c(C)c1O)CC[C@@](C)(CCC[C@H](C)CCC[C@H](C)CCCC(C)C)O2 [(+)-alpha-tocopherol, (+)-α-tocopherol]
[9]; tocopherol alone at 0.003%
  relevant modulation of the selected genes (RQ ≥2.5): does not relevantly modulate any of the selected genes
[9]; tocopherol alone at 0.01%
  relevant modulation of the selected genes (RQ ≥2.5): does not relevantly modulate any of the selected genes
[1]; [10]
  RQ value DEFB1: 0.8
[2]; 0.003% alone, Example 5
  RQ value DSC1: 0.6
[2]; [10]
  RQ value DSC1: 0.6
[4]; [10]
  RQ value CRYAB: 0.7
[4]; 0.01% alone, Example 6
  RQ value CRYAB: 0.5
[7]; 0.003% alone, Example 5
  RQ value DSG1: 0.4
[7]; [10]
  RQ value DSG1: 0.4
[7]; 0.01% alone, Example 6
  RQ value DSG1: 0.7
[8]; 0.003% alone, Example 5
  RQ value CLDN1: 0.4

## (±)-α-tocopherol [(±)-alpha-tocopherol]
[9]; tocopherol alone at 0.005%
  relevant modulation of the selected genes (RQ ≥2.5): does not relevantly modulate any of the selected genes
[1]; 0.005% alone, Example 4
  RQ value DEFB1: 1.3
[1]; [11]
  RQ value DEFB1: 1.7
[2]; 0.005% alone, Example 4
  RQ value DSC1: 1.1
[2]; [11]
  RQ value DSC1: 1.3
[2]; [12]
  RQ value DSC1: 1.9
[3]; 0.005% alone, Example 4
  RQ value OCLN: 1.7
[3]; [11]
  RQ value OCLN: 2.4
[4]; 0.005% alone, Example 4
  RQ value CRYAB: 1.4
[4]; [11]
  RQ value CRYAB: 1.3
[5]; 0.005% alone, Example 4
  RQ value HSPB2: 1.4
[6]; 0.005% alone, Example 4
  RQ value HSPB8: 1.0
[6]; [11]
  RQ value HSPB8: 1.2
[6]; [12]
  RQ value HSPB8: 2.3
[7]; 0.005% alone, Example 4
  RQ value DSG1: 1.3
[7]; [11]
  RQ value DSG1: 1.4
[7]; [12]
  RQ value DSG1: 2.0
[8]; 0.005% alone, Example 4
  RQ value CLDN1: 1.2
[8]; [11]
  RQ value CLDN1: 1.3
[8]; [12]
  RQ value CLDN1: 1.8
